Measured values taken from patent US9556199B2, “Thieno[3,2-d]pyrimidines derivatives for the treatment of viral infections” (Janssen Sciences Ireland UC, priority 2013, dated 2017).

What was measured:
Type in all cases: cell-based
human TLR7 = biological target: T1, human TLR7 (Homo sapiens, UniProt Q9NYK1); experiment: TLR7 cellular NFκB-luc reporter assay in transiently transfected HEK293 cells; conditions: lowest effective concentration, 6 hours incubation
T1 construct: expressed in transfected cells; host or cells: HEK293
T1 sequence (Q9NYK1 27-1049): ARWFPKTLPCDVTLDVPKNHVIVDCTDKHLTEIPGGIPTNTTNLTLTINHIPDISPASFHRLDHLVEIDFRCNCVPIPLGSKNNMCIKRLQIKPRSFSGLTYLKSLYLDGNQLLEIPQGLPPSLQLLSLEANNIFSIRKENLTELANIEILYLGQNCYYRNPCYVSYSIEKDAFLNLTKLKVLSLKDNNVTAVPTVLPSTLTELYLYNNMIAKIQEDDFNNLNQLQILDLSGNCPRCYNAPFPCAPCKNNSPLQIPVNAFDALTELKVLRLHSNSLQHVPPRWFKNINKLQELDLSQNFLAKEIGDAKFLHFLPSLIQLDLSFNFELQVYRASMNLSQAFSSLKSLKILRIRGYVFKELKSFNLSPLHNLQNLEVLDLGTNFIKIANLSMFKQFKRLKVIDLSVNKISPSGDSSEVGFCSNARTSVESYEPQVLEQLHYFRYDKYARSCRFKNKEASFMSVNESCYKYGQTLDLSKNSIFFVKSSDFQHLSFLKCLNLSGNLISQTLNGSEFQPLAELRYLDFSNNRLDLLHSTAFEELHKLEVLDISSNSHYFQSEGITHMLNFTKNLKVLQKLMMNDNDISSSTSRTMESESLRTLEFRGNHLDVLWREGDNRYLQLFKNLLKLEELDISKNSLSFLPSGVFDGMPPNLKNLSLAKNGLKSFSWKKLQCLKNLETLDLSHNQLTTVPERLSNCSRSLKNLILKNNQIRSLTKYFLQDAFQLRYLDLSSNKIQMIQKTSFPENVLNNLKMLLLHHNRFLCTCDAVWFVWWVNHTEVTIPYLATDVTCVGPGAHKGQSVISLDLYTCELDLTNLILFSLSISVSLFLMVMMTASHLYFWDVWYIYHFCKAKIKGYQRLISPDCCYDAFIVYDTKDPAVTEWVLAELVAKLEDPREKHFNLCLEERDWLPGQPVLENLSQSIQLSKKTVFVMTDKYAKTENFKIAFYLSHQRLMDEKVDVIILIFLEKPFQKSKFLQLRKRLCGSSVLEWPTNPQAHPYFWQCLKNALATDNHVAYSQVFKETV
Method: (§1) The ability of compounds to activate human TLR7 and/or TLR8 was assessed in a cellular reporter assay using HEK293 cells transiently transfected with a TLR7 or TLR8 expression vector and NFκB-luc reporter construct.
(§2) Briefly, HEK293 cells were grown in culture medium (DMEM supplemented with 10% FCS and 2 mM Glutamine). For transfection of cells in 15 cm dishes, cells were detached with Trypsin-EDTA, transfected with a mix of CMV-TLR7 or TLR8 plasmid (1700 ng), NFκB-luc plasmid (850 ng) and a transfection reagent and incubated for 48 h at 37° C. in a humidified 5% CO2 atmosphere. Transfected cells were then washed in PBS, detached with Trypsin-EDTA and resuspended in medium to a density of 1.25×10^5 cells/mL. Forty microliters of cells were then dispensed into each well in 384-well plates, where 200 nL of compound in 100% DMSO was already present. Following 6 hours incubation at 37° C., 5% CO2, the luciferase activity was determined by adding 15 μL of Steady Lite Plus substrate (Perkin Elmer) to each well and readout performed on a ViewLux ultraHTS microplate imager (Perkin Elmer). Dose response curves were generated from measurements performed in quadruplicates. Lowest effective concentrations (LEC) values, defined as the concentration that induces an effect which is at least two fold above the standard deviation of the assay, were determined for each compound.

human TLR8 = biological target: T2, human TLR8 (Homo sapiens, UniProt Q9NR97); experiment: TLR8 cellular NFκB-luc reporter assay in transiently transfected HEK293 cells; conditions: lowest effective concentration, 6 hours incubation
T2 construct: expressed in transfected cells; host or cells: HEK293
T2 sequence (Q9NR97 27-1041): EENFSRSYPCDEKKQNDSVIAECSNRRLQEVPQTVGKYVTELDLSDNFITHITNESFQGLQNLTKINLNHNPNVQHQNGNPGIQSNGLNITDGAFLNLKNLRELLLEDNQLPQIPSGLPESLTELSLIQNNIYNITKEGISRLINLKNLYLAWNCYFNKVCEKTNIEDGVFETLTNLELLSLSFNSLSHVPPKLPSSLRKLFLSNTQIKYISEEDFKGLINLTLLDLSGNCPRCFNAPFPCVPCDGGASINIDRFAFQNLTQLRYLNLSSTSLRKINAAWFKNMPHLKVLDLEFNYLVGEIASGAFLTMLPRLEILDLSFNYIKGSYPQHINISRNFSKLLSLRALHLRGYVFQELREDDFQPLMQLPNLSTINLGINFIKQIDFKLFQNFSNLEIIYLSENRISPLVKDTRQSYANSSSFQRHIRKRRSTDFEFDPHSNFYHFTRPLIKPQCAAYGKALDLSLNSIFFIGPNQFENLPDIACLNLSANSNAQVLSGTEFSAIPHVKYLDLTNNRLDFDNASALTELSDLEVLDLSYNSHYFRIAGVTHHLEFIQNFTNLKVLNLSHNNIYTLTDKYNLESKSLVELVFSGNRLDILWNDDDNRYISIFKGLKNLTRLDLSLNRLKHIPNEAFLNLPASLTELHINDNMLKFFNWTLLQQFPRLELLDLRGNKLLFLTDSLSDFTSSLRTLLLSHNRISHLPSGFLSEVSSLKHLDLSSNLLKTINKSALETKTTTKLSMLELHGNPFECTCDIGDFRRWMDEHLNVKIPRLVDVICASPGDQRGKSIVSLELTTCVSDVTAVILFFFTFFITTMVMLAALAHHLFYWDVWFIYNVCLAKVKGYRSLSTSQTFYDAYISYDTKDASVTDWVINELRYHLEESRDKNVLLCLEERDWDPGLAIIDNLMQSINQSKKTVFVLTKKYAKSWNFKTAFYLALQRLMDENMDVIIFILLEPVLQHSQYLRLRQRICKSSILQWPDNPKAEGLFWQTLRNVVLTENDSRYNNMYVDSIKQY
Method: as §1, §2

[1] = system: interferon-stimulated responsive elements (ISRE); experiment: Activation of ISRE promoter elements in HEK-ISREluc cells by conditioned media from compound-treated PBMC; conditions: lowest effective concentration applied to PBMCs, supernatant transferred to HEK-ISREluc cells, 24 hours, read-out: HEK-ISRE luc (LEC)
Method: The potential of compounds to induce IFN-I was also evaluated by measuring the activation of interferon-stimulated responsive elements (ISRE) by conditioned media from PBMC. The ISRE element of sequence GAAACTGAAACT (SEQ ID NO: 1) is highly responsive to the STAT1-STAT2-IRF9 transcription factor, activated upon binding of IFN-I to their receptor IFNAR (Clontech, PT3372-5W). The plasmid pISRE-Luc from Clontech (ref. 631913) contains 5 copies of this ISRE element, followed by the firefly luciferase ORF. A HEK293 cell line stably transfected with pISRE-Luc (HEK-ISREluc) was established to profile the conditioned PBMC cell culture media.
Briefly, PBMCs were prepared from buffy coats of at least two donors using a standard Ficoll centrifugation protocol. Isolated PBMCs were resuspended in RPMI medium supplemented with 10% human AB serum and 2×10^5 cells/well were dispensed into 384-well plates containing compounds (70 μL total volume). After overnight incubation, 10 μL of supernatant was transferred to 384-well plates containing 5×10^3 HEK-ISREIuc cells/well in 30 μL (plated the day before). Following 24 hours of incubation, activation of the ISRE elements was measured by assaying luciferase activity using 40 μL/well Steady Lite Plus substrate (Perkin Elmer) and measured with ViewLux ultraHTS microplate imager (Perkin Elmer). The stimulating activity of each compound on the HEK-ISREluc cells was reported as LEC value, defined as the compound concentration applied to the PBMCs resulting in a luciferase activity at least two fold above the standard deviation of the assay. The LEC in turn indicates the degree of ISRE activation on transfer of a defined amount of PBMC culture medium. Recombinant interferon α-2a (Roferon-A) was used as a standard control compound.

Row | SMILES | Human TLR 7 (LEC) (human TLR7) [µM] | Human TLR 8 (LEC) (human TLR8) [µM] | minimal effective concentration [1] [µM]
1 | CCC[C@H](CO)Nc1nc(N)nc2ccsc12 [Compound 12] | >25 | 7.2 | 21
2 | CCCC[C@@H](CO)Nc1nc(N)nc2c(C)csc12 [Compound 17] | 3.7 | 0.3 | 0.4
3 | CCC[C@@H](CO)Nc1nc(N)nc2c(C)csc12 [Compound 13] | 12 | 0.2 | 0.6
4 | CCCCNc1nc(N)nc2cc(C)sc12 [Compound 1] | 1.0 | 0.5 | 0.1
5 | CCCC[C@@H](CO)Nc1nc(N)nc2ccsc12 [Compound 4] | 0.5 | 0.03 | 0.04
6 | CCCC(C)Nc1nc(N)nc2ccsc12 (stereo not drawn) [Compound 9] | 3.3 | 2.5 | 3.8
7 | CCCC(C)Nc1nc(N)nc2cc(C)sc12 (stereo not drawn) [Compound 20] | >25 | 6.9 | 10.1
8 | CCC[C@H](Nc1nc(N)nc2ccsc12)C(=O)OC [Compound 10] | 6.1 | 2.7 | 0.8
9 | CCCC[C@H](CO)Nc1nc(N)nc2cc(C)sc12 [Compound 21] | 10.4 | 0.6 | –
10 | CCCCNc1nc(N)nc2c(C)csc12 [Compound 2] | 2.2 | 1.0 | 0.6
11 | CCC[C@@H](CO)Nc1nc(N)nc2ccsc12 [Compound 5] | 2.7 | 0.2 | 0.4
12 | CCCC[C@H](CO)Nc1nc(N)nc2c(C)csc12 [Compound 18] | >25 | 0.8 | 1.7
13 | CCC[C@H](Nc1nc(N)nc2c(C)csc12)C(=O)OC [Compound 15] | >25 | 3.5 | 2.6
14 | CCCC[C@@H](CCO)Nc1nc(N)nc2ccsc12 [Compound 8] | 1.2 | 0.7 | 0.3
15 | CCCC[C@H](CO)Nc1nc(N)nc2ccsc12 [Compound 6] | >25 | 0.5 | 0.6
16 | CCCCCNc1nc(N)nc2ccsc12 [Compound 11] | 2.1 | 3.9 | 1.2
17 | CCCC[C@@H](CO)Nc1nc(N)nc2cc(C)sc12 [Compound 22] | 2.9 | 0.2 | –
18 | CCCCNc1nc(N)nc2ccsc12 [Compound 7] | 1.1 | 0.7 | 0.3
19 | CCC[C@@H](CCO)Nc1nc(N)nc2c(C)csc12 [Compound 16] | 5.2 | 1.6 | 0.7
20 | CCCCCNc1nc(N)nc2c(C)csc12 [Compound 14] | 6.8 | 1.9 | 3.2
21 | CCCC[C@@H](CCO)Nc1nc(N)nc2c(C)csc12 [Compound 19] | 3.9 | 1.6 | 0.6
22 | CCCCNc1nc(N)nc2cc(C(C)(C)C)sc12 [Compound 3] | 1.2 | 1.2 | 0.4
23 | CCCC[C@@H](CO)Nc1nc(N)nc2cc(C(C)(C)C)sc12 [Compound 23] | 2.7 | 2.6 | –
